Reference: patent publication US20100172991A1, “Extended Release Formulation and Methods of Treating Adrenergic Dysregulation” (priority 2007, published 2010)
In brackets after ≈: the same amount, converted by molar mass. Like-named read-outs stand apart in the source and are kept apart here.

Columns and labels:
[1] = tested on: systolic and diastolic blood pressure; assay: animal or person
Description: Mean baseline ABPM data for the three treatment groups were compared with mean data obtained on Day 26 (last day of treatment) and on Days 27 and 28. A more detailed PK/PD analysis was conducted by using the individual patient ABPM data to compare the blood pressure profile at Baseline and on Day 26 of treatment. The daytime (0- to 12-hour) intervals were used in the analysis, since pharmacokinetic data were collected on Day 25, over the daytime 12-hour dosing interval at steady state. In order to investigate the maintenance of effect at the tail end of the inter-dosing interval, differences between the SBP, DBP, and HR values at Baseline and the last two hours in the inter-dosing interval (Hours 11 and 12) on Day 26 were calculated for each patient. Paired t-tests were performed to test the significance of these differences between Baseline and the last two measuring times. The approach taken to quantify the effects of clonidine on blood pressure was to calculate the difference between the areas under the BP vs. time curves (AUCBP) at Baseline and on Day 26. These values were used to relate the pharmacodynamic effect to dose, as well as to conduct the PK/PD analyses.
Pharmacokinetic-pharmacodynamic modeling was conducted using the blood pressure response data and the Cmax, Cmin and AUCτ values at Day 25 of dosing. […] The data in Table 8 summarize the PK/PD parameters from the sigmoidal Emax model.

[2] = traditional oral formulation; cited from earlier work
[3] = sigmoidal Emax model, Day 25 exposure

Molecule `Clc1cccc(Cl)c1NC1=NCCN1` [clonidine, 2,6-dichloro-N-2-imidazolidinylidene benzeneamine] has an EC50 ([1]; Homo sapiens, 600 h, read-out: EC50, Diastolic BP vs Cmax) of 0.431 ng/mL (≈ 1.87 nM), an EC50 ([1]; Homo sapiens, 600 h, read-out: EC50, Diastolic BP vs Cmin) of 0.341 ng/mL (≈ 1.48 nM) and an EC50 ([1]; Homo sapiens, 600 h, read-out: EC50, Systolic BP vs Cmax) of 0.458 ng/mL (≈ 1.99 nM). For the same molecule, the EC50 ([1]; Homo sapiens, 600 h, read-out: EC50, Systolic BP vs Cmin) was 0.359 ng/mL (≈ 1.56 nM), the EC90 ([1]; Homo sapiens, 600 h, read-out: EC90, Diastolic BP vs AUCτ) was 5.92 ng/mL (≈ 25.7 nM) and the “Emax (ΔBP), Diastolic BP vs AUCτ” value [1, 3] was 16.8. For the same molecule, the “Emax (ΔBP), Diastolic BP vs Cmax” value [1, 3] was 16.7, the “Emax (ΔBP), Diastolic BP vs Cmin” value [1, 3] was 16.8 and the “Emax (ΔBP), Systolic BP vs AUCτ” value [1, 3] was 24.3. For the same molecule, the “Emax (ΔBP), Systolic BP vs Cmax” value [1, 3] was 24.3, the “Emax (ΔBP), Systolic BP vs Cmin” value [1, 3] was 24.4 and the biological half-life [2] was “four to six”.
